Test systems include CCRF-CEM; SNB-19; OVCAR-8; HOP-62; COLO 205; M14; NCI-H522; SK-MEL-2; U-251; SNB-75; NCI-H460; KM12; PC-3; SF-539; UACC-62; HOP-92; OVCAR-3; SR; HL-60.
Holding throughout (test): growth of human tumour cells (NCI), 48 h

Eight molecules from ChEMBL document CHEMBL1201862, “PubChem BioAssay data set” (2004) can be followed below.

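Interpolation was linear, between the two tested concentrations surrounding the appropriate level; five concentrations were tested over 48 hours in 96-well plates. The concentration for 50% growth inhibition is given as GI50.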 The source made the active and inactive calls. Cut-off read from the data, not from the text of the source: active = GI50 up to about 1.1 µM and inactive = higher.

For the molecule `N#Cc1c(-c2ccccc2)c(/C=N/c2cccc(C(F)(F)F)c2)c(=O)n2c1[nH]c1ccccc12`, the GI50 with CCRF-CEM was 40.4 µM (inactive); in the experiment with SNB-19, 30.5 µM (inactive); with OVCAR-8, 24.8 µM (inactive); in the experiment on HOP-62, 30.5 µM (inactive); in the experiment on COLO 205, > 100 µM (inactive); with M14, 32.3 µM (inactive). The GI50 in the experiment with NCI-H522 is 15.1 µM (inactive); in the experiment on SK-MEL-2, 22.1 µM (inactive); in the experiment with U-251 it was 45 µM (inactive); in the experiment on SNB-75 it was 46 µM (inactive); in the experiment on NCI-H460, 14.5 µM (inactive); in the experiment with KM12, 19.4 µM (inactive). In addition, the GI50 was 31 µM (inactive) in the experiment on PC-3 and 16.7 µM (inactive) in the experiment with SF-539.
As for `O=C1COc2cc(NC(=S)Nc3ccccc3)ccc2N1`, the GI50 in the experiment with CCRF-CEM, in the experiment with SNB-19, in the experiment on OVCAR-8, in the experiment on HOP-62, in the experiment on UACC-62 and in the experiment on HOP-92 was > 100 µM (inactive) in each case. The GI50 with COLO 205, in the experiment on M14, with OVCAR-3, in the experiment with NCI-H522, in the experiment on SK-MEL-2 and in the experiment on U-251 was > 100 µM (inactive) throughout. In addition, the GI50 in the experiment on SR, with SNB-75, with NCI-H460, in the experiment with KM12, in the experiment on HL-60 and in the experiment on SF-539 was > 100 µM (inactive) each time.
On to `N=C(N)N/N=C/c1oc(-c2ccc(S(=O)(=O)O)o2)c(-c2ccc(S(=O)(=O)O)o2)c1[N+](=O)[O-]`, for which the GI50 with CCRF-CEM, in the experiment with SNB-19, with OVCAR-8, in the experiment with HOP-62, in the experiment on UACC-62 and with HOP-92 was > 100 µM (inactive) throughout. The GI50 with COLO 205, in the experiment with M14, with OVCAR-3, in the experiment on NCI-H522, in the experiment with SK-MEL-2 and with U-251 was > 100 µM (inactive) in each case. In addition, the GI50 with SR, in the experiment on SNB-75, in the experiment with NCI-H460, in the experiment with KM12, with HL-60 and in the experiment with SF-539 was > 100 µM (inactive) each time.
In the case of `Cc1cc(N(CCC#N)CCC#N)ccc1/C=C(\N=[N+]=[N-])C(=O)NC(=O)COc1ccccc1`, the GI50 with CCRF-CEM is > 100 µM (inactive); with SNB-19, > 76.6 µM (inactive); in the experiment with OVCAR-8, > 81.1 µM (inactive); in the experiment with HOP-62 it was > 100 µM (inactive); with UACC-62, > 100 µM (inactive); in the experiment with HOP-92 it was > 100 µM (inactive). Moreover, the GI50 in the experiment on COLO 205 was > 100 µM (inactive); with M14 it was > 100 µM (inactive); with OVCAR-3 it was > 100 µM (inactive); in the experiment on NCI-H522, > 100 µM (inactive); in the experiment with SK-MEL-2, > 73.3 µM (inactive); with U-251 it was > 67.8 µM (inactive). The GI50 in the experiment on SR was > 100 µM (inactive); in the experiment on SNB-75 it was > 44 µM (inactive); in the experiment on NCI-H460, > 100 µM (inactive); in the experiment with KM12 it was > 100 µM (inactive); in the experiment on HL-60, > 100 µM (inactive); with SF-539, > 67.1 µM (inactive).
As to `COc1cccc(/C=N\NC(=O)C(C)SC(C)C(=O)N/N=C/c2cccc(OC)c2)c1` (centres undefined), the GI50 in the experiment with CCRF-CEM is 31.9 µM (inactive); with SNB-19 it was 20.8 µM (inactive); with OVCAR-8, 28.4 µM (inactive); in the experiment with HOP-62, 16 µM (inactive); in the experiment on UACC-62 it was > 54.2 µM (inactive); in the experiment with HOP-92, 20.8 µM (inactive). Further, the GI50 with COLO 205 is 24.6 µM (inactive); in the experiment on M14, 72.9 µM (inactive); in the experiment with OVCAR-3, 20.7 µM (inactive); in the experiment with NCI-H522 it was 22.3 µM (inactive); with SK-MEL-2, 39.2 µM (inactive); in the experiment on U-251, 18 µM (inactive). Moreover, the GI50 in the experiment on SR is 40.5 µM (inactive); with SNB-75 it was 16.9 µM (inactive); in the experiment with NCI-H460 it was 14.9 µM (inactive); in the experiment on KM12 it was 31.5 µM (inactive); in the experiment on HL-60, > 62.1 µM (inactive); with SF-539, > 89.1 µM (inactive).
Consider `[O-][N+]1=C(c2ccccc2)/C(=C2/C(c3ccccc3)=[N+]([O-])c3ccccc32)Cc2ccccc21`, for which the GI50 in the experiment on CCRF-CEM is 13.1 µM (inactive); in the experiment with SNB-19, 19 µM (inactive); with OVCAR-8, 16.6 µM (inactive); with HOP-62, 32.4 µM (inactive); with UACC-62 it was 14.1 µM (inactive); in the experiment with HOP-92, 15.2 µM (inactive). For the same molecule, the GI50 with COLO 205 was 17.3 µM (inactive); with M14, 19.6 µM (inactive); in the experiment on OVCAR-3, 16.8 µM (inactive); in the experiment on NCI-H522, 15.3 µM (inactive); in the experiment on SK-MEL-2 it was 16.1 µM (inactive); in the experiment with U-251, 14.5 µM (inactive). For the same molecule, the GI50 in the experiment on SNB-75 was 15.5 µM (inactive); in the experiment on KM12 it was 18.7 µM (inactive); in the experiment on HL-60 it was 40.1 µM (inactive); in the experiment on PC-3, 12.9 µM (inactive); with SF-539, 24.2 µM (inactive).
Take `CNC(=O)OCc1cc2ccncc2c2c1[nH]c1ccccc12`: the GI50 in the experiment with CCRF-CEM was 7.4 µM (inactive); in the experiment with SNB-19 it was > 53.7 µM (inactive); with OVCAR-8, 11.5 µM (inactive); with HOP-62, 10 µM (inactive); in the experiment with UACC-62, > 100 µM (inactive); in the experiment on HOP-92, > 100 µM (inactive). For the same molecule, the GI50 with COLO 205 was > 28.3 µM (inactive); in the experiment on M14, > 100 µM (inactive); in the experiment on OVCAR-3, > 100 µM (inactive); in the experiment on NCI-H522, 20.7 µM (inactive); in the experiment with SK-MEL-2, > 100 µM (inactive); with U-251, > 39.7 µM (inactive). The GI50 was 2.12 µM (inactive) in the experiment on SR; > 40.4 µM (inactive) in the experiment on SNB-75; > 20.7 µM (inactive) with NCI-H460; 5.09 µM (inactive) with KM12; 19.1 µM (inactive) in the experiment on HL-60; > 42.6 µM (inactive) with SF-539.
`CCOC(=O)c1ccc(N[C@@H]2c3cc4c(cc3C(C3=CC(=O)C(=O)C(OC)=C3)[C@H]3C(=O)OCC32)OCO4)cc1` (some centres undefined): the GI50 with CCRF-CEM is 0.845 µM (active); in the experiment with SNB-19, 2.49 µM (inactive); in the experiment with OVCAR-8 it was 2.86 µM (inactive); with HOP-62, 0.512 µM (active); in the experiment on UACC-62, 1.69 µM (inactive); in the experiment on HOP-92, 2.04 µM (inactive). Besides, the GI50 with COLO 205 is 3.21 µM (inactive); with M14, 2.51 µM (inactive); with OVCAR-3, 8.47 µM (inactive); in the experiment with NCI-H522, 4.61 µM (inactive); in the experiment on SK-MEL-2 it was 2.82 µM (inactive); in the experiment on U-251 it was 0.995 µM (active). Moreover, the GI50 with SR was 0.148 µM (active); with SNB-75, 1.58 µM (inactive); in the experiment with NCI-H460 it was 0.173 µM (active); in the experiment with KM12, 3.92 µM (inactive); in the experiment on HL-60, 0.802 µM (active); in the experiment with SF-539, 1.29 µM (inactive).
